How the values were obtained:
[1] = biological target: PIK3CA (human) (UniProt P42336); experiment: Enzyme Assay
[2] = biological target: PIK3CD (Human) (UniProt O00329); experiment: Enzyme Assay
[3] = biological target: PIK3CG (human) (UniProt P48736); experiment: Enzyme Assay
[4] = biological target: PIK3CA (human) (UniProt P42336); experiment: Cell-Based Assay; conditions: rat-1
[5] = biological target: PIK3CD (Human) (UniProt O00329); experiment: Cell-Based Assay; conditions: rat-1
[6] = biological target: PIK3CG (human) (UniProt P48736); experiment: Cell-Based Assay; conditions: u937

Chain of PIK3CD (Human) (O00329 whole entry, looked up): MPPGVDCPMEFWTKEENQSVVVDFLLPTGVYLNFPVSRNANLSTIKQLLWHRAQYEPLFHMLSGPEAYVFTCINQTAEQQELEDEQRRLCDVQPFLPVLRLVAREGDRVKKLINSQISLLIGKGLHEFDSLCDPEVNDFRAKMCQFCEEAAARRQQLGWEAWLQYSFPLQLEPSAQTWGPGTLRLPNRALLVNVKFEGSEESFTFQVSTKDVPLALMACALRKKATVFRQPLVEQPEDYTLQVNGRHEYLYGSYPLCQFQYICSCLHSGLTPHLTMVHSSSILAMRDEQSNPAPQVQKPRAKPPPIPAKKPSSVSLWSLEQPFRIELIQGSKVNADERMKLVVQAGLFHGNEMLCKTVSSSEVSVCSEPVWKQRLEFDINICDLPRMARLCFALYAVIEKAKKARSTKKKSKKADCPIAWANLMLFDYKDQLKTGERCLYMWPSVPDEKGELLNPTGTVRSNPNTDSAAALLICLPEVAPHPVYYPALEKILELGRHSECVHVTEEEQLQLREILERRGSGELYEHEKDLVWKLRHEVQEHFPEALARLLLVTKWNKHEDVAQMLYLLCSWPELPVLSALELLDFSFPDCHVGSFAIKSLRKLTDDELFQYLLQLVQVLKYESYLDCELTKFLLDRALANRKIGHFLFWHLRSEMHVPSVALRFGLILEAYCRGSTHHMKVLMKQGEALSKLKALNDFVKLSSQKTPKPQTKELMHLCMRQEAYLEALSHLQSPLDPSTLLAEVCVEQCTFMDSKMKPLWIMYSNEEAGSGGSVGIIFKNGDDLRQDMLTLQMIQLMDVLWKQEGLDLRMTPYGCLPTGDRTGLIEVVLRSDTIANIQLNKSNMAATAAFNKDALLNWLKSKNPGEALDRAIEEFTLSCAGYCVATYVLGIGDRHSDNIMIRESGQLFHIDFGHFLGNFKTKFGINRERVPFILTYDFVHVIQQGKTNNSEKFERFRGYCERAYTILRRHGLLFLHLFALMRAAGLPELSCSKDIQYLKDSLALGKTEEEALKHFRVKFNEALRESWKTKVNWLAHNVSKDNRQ
Chain of PIK3CA (human) (P42336 whole entry, looked up): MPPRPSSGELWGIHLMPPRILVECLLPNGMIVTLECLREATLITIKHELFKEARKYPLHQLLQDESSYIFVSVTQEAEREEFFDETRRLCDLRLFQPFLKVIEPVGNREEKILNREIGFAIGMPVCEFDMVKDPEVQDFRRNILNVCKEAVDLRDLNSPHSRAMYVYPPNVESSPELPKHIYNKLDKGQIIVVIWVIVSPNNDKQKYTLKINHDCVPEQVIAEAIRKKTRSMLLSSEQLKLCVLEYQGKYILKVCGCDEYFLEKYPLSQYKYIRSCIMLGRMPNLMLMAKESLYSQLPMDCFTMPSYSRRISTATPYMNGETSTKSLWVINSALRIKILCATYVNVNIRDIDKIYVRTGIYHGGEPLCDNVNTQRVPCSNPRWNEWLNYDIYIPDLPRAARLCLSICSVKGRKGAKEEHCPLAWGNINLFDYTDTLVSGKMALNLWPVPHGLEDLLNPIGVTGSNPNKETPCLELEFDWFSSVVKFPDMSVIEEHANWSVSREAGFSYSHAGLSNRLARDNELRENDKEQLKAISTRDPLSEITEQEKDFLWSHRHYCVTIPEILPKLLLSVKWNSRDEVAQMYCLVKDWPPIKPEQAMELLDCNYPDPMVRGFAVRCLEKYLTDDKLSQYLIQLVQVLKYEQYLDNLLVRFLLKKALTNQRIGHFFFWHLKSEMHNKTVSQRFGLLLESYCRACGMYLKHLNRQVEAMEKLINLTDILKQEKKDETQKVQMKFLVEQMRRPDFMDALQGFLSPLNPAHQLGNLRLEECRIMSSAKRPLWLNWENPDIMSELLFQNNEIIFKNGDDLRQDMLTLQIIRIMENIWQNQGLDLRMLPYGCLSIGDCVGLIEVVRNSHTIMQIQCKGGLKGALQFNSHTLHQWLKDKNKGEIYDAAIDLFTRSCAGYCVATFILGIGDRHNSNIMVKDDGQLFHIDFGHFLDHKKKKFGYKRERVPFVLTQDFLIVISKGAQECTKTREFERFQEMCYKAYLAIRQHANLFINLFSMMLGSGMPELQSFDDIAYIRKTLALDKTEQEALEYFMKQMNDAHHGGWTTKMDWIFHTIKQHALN
Chain of PIK3CG (human) (P48736 whole entry, looked up): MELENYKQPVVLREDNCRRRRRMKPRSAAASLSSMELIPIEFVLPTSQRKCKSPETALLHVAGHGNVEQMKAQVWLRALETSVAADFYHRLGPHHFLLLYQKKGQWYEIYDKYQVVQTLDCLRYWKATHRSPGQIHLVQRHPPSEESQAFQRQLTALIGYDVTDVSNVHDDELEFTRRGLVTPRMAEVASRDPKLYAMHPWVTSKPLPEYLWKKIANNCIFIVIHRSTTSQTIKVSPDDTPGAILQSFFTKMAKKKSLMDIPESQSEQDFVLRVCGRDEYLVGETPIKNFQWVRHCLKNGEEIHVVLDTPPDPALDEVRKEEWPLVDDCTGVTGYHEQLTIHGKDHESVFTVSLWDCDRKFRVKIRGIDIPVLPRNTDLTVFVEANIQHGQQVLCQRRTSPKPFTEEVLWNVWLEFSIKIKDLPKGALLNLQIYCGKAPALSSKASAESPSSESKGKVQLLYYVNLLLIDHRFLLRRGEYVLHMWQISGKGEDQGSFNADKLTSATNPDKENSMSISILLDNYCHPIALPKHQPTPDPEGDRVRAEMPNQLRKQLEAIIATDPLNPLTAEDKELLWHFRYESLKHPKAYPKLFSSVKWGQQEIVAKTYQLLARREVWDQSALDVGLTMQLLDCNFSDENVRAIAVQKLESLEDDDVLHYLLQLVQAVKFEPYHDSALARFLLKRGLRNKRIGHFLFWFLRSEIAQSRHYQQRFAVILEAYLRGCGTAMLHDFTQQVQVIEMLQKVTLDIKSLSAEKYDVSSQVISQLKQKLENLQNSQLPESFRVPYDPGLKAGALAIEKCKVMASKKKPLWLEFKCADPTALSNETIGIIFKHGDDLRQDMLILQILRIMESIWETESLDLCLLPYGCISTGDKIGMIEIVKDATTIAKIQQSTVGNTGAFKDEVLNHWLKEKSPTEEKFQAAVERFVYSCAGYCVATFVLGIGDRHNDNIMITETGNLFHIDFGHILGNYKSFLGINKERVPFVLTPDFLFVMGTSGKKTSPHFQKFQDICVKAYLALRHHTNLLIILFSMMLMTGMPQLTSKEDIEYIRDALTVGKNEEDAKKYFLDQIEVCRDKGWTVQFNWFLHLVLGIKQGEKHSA

SMILES | IC50 [1] | IC50 [2] | IC50 [3] | IC50 [4] | IC50 [5] | IC50 [6]
N#Cc1c(N)ncnc1N1C[C@@H](O)C[C@H]1c1nc2cccc(C(F)(F)F)c2c(=O)n1-c1cccc(F)c1 | 9300 nM | 82 nM | 720 nM | > 10 µM | 29 nM | 146 nM
N#Cc1c(N)ncnc1N1C[C@@H](F)C[C@H]1c1nc2cccc(C(F)(F)F)c2c(=O)n1-c1ccccc1 | 2400 nM | 8 nM | 55 nM | 0.766 µM | 10 nM | 31 nM
Nc1nc(N2C[C@@H](F)C[C@H]2c2nc3cccc(C(F)(F)F)c3c(=O)n2-c2ccccc2)c2nc[nH]c2n1 | 1300 nM | 18 nM | 9 nM | 3.3 µM | 29 nM | 45 nM
Cn1cnc2c(N3CCC[C@H]3c3nc4cccc(Cl)c4c(=O)n3-c3ccccc3)nc(N)nc21 | 3700 nM | 52 nM | 305 nM | > 10 µM | 110 nM | 216 nM
N#Cc1cnc(N)nc1N1C[C@@H](O)C[C@H]1c1nc2cccc(C(F)(F)F)c2c(=O)n1-c1ccccc1 | 6600 nM | 390 nM | 320 nM | > 10 µM | 141 nM | 113 nM
Cc1nc(N)nc(N2C[C@@H](O)C[C@H]2c2nc3ccc(F)c(Cl)c3c(=O)n2-c2ccccc2)c1C#N | 280 nM | 13 nM | 14 nM | 1.95 µM | 10 nM | 7 nM
Cc1nc(N)nc(N2CCC[C@H]2c2nc3cccc(S(C)(=O)=O)c3c(=O)n2-c2ccccc2)c1C#N | 1100 nM | 13 nM | 75 nM | 4.6 µM | 42 nM | 343 nM
Cc1nc(N)nc(N2CCC[C@H]2c2nc3cccc(Cl)c3c(=O)n2N2CCOCC2)c1C#N | 790 nM | 18 nM | 71 nM | 1.79 µM | 15 nM | 27 nM
Cc1nc(N)nc(N2C[C@@H](O)C[C@H]2c2nc3cccc(Cl)c3c(=O)n2-c2ccccc2)c1C#N | 360 nM | 12 nM | 18 nM | 1.04 µM | 4 nM | 5 nM
Nc1nc(N2CCC[C@H]2c2nc3cccc(Cl)c3c(=O)n2-c2ccccc2)c2ncsc2n1 | 350 nM | 10 nM | 19 nM | > 10 µM | < 3 nM | 59 nM
Cc1nc(N)nc(N2C[C@@H](O)C[C@H]2c2nc3cccc(OC(F)F)c3c(=O)n2-c2ccccc2)c1C#N | 450 nM | 75 nM | 140 nM | 4.67 µM | 45 nM | 70 nM
Cc1nc(N)nc(N2CCC[C@H]2c2nc3cccc(C(F)(F)F)c3c(=O)n2-c2cccnc2)c1C#N | 540 nM | 24 nM | 180 nM | 3.84 µM | 27 nM | 82 nM
O=c1c2c(Cl)cccc2nc([C@@H]2C[C@H](OC(F)F)CN2c2ncnc3[nH]cnc23)n1-c1ccccc1 | 620 nM | 5 nM | 34 nM | > 10 µM | 17 nM | 117 nM
Nc1nc(N2CCC[C@H]2c2nc3cccc(C(F)(F)F)c3c(=O)n2-c2ccccc2)c2ncsc2n1 | 1700 nM | 48 nM | 87 nM | > 10 µM | 110 nM | 40 nM
Nc1nc(N2C[C@@H](O)C[C@H]2c2nc3cccc(C(F)(F)F)c3c(=O)n2-c2ccccc2)c2ncsc2n1 | 2500 nM | 27 nM | 37 nM | 5.31 µM | 89 nM | 55 nM
Cc1nc(N)nc(N2CCC[C@H]2c2nc3ccc(F)c(S(C)(=O)=O)c3c(=O)n2-c2ccccc2)c1C#N | 5500 nM | 38 nM | 1100 nM | > 10 µM | 103 nM | 1580 nM

SMILES | IC50 [1] | IC50 [2] | IC50 [3] | IC50 [4] | IC50 [5] | IC50 [6]
N#Cc1c(N)ncnc1N1CCC[C@H]1c1nc2ccc(F)c(C(F)(F)F)c2c(=O)n1-c1ccccc1 | 4200 nM | 13 nM | 500 nM | – | – | 211 nM
Cn1cnc2c(N3CCC[C@H]3c3nc4cccc(Cl)c4c(=O)n3N3CCOCC3)nc(N)nc21 | 5250 nM | 2500 nM | 505 nM | – | 476 nM | 2360 nM
CO[C@H]1C[C@@H](c2nc3cccc(C(F)(F)F)c3c(=O)n2-c2ccccc2)N(c2nc(N)nc(C)c2C#N)C1 | 2100 nM | 24 nM | 107 nM | – | 182 nM | 227 nM
CO[C@H]1C[C@@H](c2nc3cccc(C(F)(F)F)c3c(=O)n2-c2ccccc2)N(c2ncnc(N)c2C#N)C1 | 7600 nM | 18 nM | 460 nM | – | 35 nM | 671 nM
Cc1nc(N)nc(N2C[C@@H](O)C[C@H]2c2nc3cccc(C(F)(F)F)c3c(=O)n2-c2ccccc2)c1C#N | 780 nM | < 3 nM | 5 nM | – | 8 nM | 59 nM
Cc1ccc(-n2c([C@@H]3CSCN3c3ncnc4[nH]cnc34)nc3cccc(Cl)c3c2=O)s1 | > 10000 nM | 140 nM | 820 nM | > 10 µM | 509 nM | –
Cc1nc(N)nc(N2CCC[C@H]2c2nc3ccc(F)c(F)c3c(=O)n2-c2ccccc2)c1C#N | 600 nM | 14 nM | 41 nM | > 10 µM | < 3 nM | –
Cc1nc(N)nc(N2CCC[C@H]2c2nc3ccc(F)c(C(F)(F)F)c3c(=O)n2-c2ccccc2)c1C#N | 390 nM | 18 nM | 30 nM | – | – | 522 nM
Cc1nc(N)nc(N2CCC[C@H]2c2nc3cc(F)cc(F)c3c(=O)n2-c2ccccc2)c1C#N | 5600 nM | 73 nM | 3100 nM | > 10 µM | 148 nM | –
CN(C)n1c([C@@H]2CCCN2c2nc(N)nc3[nH]cnc23)nc2cccc(Cl)c2c1=O | 1200 nM | 110 nM | 780 nM | 2.86 µM | 128 nM | –
Cc1ccc(-n2c([C@@H]3CSCN3c3ncnc(N)c3C#N)nc3cccc(Cl)c3c2=O)s1 | > 10000 nM | 82 nM | 1100 nM | > 10 µM | 262 nM | –
O=c1c2c(Cl)cccc2nc([C@@H]2CCCN2c2ncnc3[nH]cnc23)n1N1CCCCC1 | 1800 nM | 10 nM | 200 nM | > 10 µM | 198 nM | –
COC(=O)N1CC[C@@H](n2c([C@@H]3CCCN3c3ncnc4[nH]cnc34)nc3cccc(Cl)c3c2=O)C1 | > 10000 nM | 200 nM | > 10000 nM | > 10 µM | 2350 nM | –
O=c1c2c(Cl)cccc2nc([C@@H]2CCCN2c2ncnc3[nH]cnc23)n1C1CCCCC1 | > 10000 nM | 12 nM | 170 nM | > 10 µM | 121 nM | –
N#Cc1c(N)ncnc1N1CCC[C@H]1c1nc2cccc(Cl)c2c(=O)n1-c1cccnc1 | 7700 nM | 14 nM | 150 nM | 4.59 µM | 12 nM | –

Reference: the Kinase Knowledgebase extract (Sharma et al. 2016)
